# Reference: PMC9926630, “Simultaneous attenuation of hyperglycemic memory-induced retinal, pulmonary, and glomerular dysfunctions by proinsulin C-peptide in diabetes” (BMC Medicine, 2023)
# What was measured:
# [1] = test system: TGase; test: In situ TGase activity in endothelial cells under HGM conditions; assay type: cell-based; settings: 30 mM glucose 3 days then 5.5 mM 3 days, 1 nM K9-C-peptide or K8 polypeptide, 0.5 µM Trolox, 50 µM cystamine, 1 nM human C-peptide, confocal, n = 4
# Description: (§1) HRECs were purchased from the Applied Cell Biology Research Institute (Cell Systems, Kirkland, WA) and grown on 2% gelatin-coated plates in M199 medium supplemented with 20% FBS, 3 ng/mL basic fibroblast growth factor, 100 U/mL penicillin, and […] streptomycin in a humidified 5% CO2 incubator. Cells were authenticated by short tandem repeat profiling, and subconfluent cells after 7–9 passages were used in experiments. For the experiments, endothelial cells were incubated for 12 h in a low-serum medium supplemented with 2% fetal bovine serum, 0.1 ng/mL basic fibroblast growth factor, and antibiotics. The cells were then treated with 5.5 mM D-glucose for 6 days (normal glucose), 30 mM glucose for 6 days (high glucose), or 30 mM glucose for 3 days followed by 5.5 mM glucose for 3 days (HGM).
# In situ TGase transamidating activity was measured by confocal microscopic assay as previously described. Briefly, HRECs were treated with 1 mmol/L 5-(biotinamido)pentylamine for 1 h and fixed with 3.7% formaldehyde for 30 min. The cells were then permeabilized with 0.2% Triton X-100 in PBS for 30 min and stained with FITC-conjugated streptavidin (1:200; MilliporeSigma, Burlington, MA, USA) for 1 h. The fluorescence intensities of single stained cells were determined by confocal microscopy (K1-Fluo) for 30 randomly selected cells in three microscopic fields per experiment (n = 4).
# [2] = test system: human retinal endothelial cells (HRECs); test: Intracellular ROS levels in endothelial cells under HGM conditions; assay type: cell-based; settings: 30 mM glucose 3 days then 5.5 mM 3 days; 1 nM K9-C-peptide or K8 polypeptide, 0.5 µM Trolox, 50 µM cystamine, 1 nM human C-peptide; CellROX green and H2DCFDA, n = 4
# Description: as §1
# Intracellular ROS levels were measured in HRECs using CellROX™ green reagent and 2′,7′-dichlorodihydrofluorescein diacetate (Thermo Fisher Scientific, Waltham, MA, USA) as previously described. Labeled cells on coverslips were mounted in a perfusion chamber and analyzed by confocal microscopy (K1-Fluo). ROS levels were determined at the single-cell level for 30 randomly selected cells in three microscopic fields per experiment (n = 4).
# [3] = test system: type 1 and type 2 diabetic mice; settings: cited from earlier work
# Text: The coincidence of diabetic complications, including DR, DPN, and DKD, has been reported in a number of clinical studies. Among the potential microvascular complications of diabetes, the coincidence of DR and DKD was reported to be high in epidemiological studies of both type 1 and type 2 diabetes. Co-occurrence of microvascular complications has also been observed in diabetic animal models including diabetic mice and rats. Moreover, increased mortality was reported in patients with both DR and systemic vascular diseases, including DKD [[ ...
# [4] = cited from earlier work
# Description: However, C-peptide is limited in clinical applications by its short circulating half-life (approximately 30 min) and costly chemical synthesis. Recently, we prepared K9-C-peptide, a recombinant human C-peptide conjugated to ELP, to facilitate long-term systemic delivery of C-peptide. ELPs, derived from human elasti ...
# [5] = test system: insulin-supplemented diabetic (HGM) mice; test: Body weight, blood glucose, water and food consumption of HGM mice; assay type: in vivo, mouse; settings: 4 weeks of treatment, insulin vs diabetic, K9-C-peptide/K8 on top of insulin, n = 6
# Description: Six-week-old male C57BL/6 mice were obtained from DBL (EumSeong, Korea). […] Soo-Yul Kim (National Cancer Center, Goyang, Republic of Korea). Mice were maintained under pathogen-free conditions in a temperature-controlled room with a 12-h light/dark cycle. Diabetic mice were generated by single daily intraperitoneal injections of streptozotocin (50 mg/kg body weight; MilliporeSigma, Burlington, MA, USA) freshly prepared in 100 mM citrate buffer (pH 4.5) for 5 consecutive days, as previously described. The control group mice were injected with an equal volume of the citrate buffer. Mice with fasting blood glucose concentrations ≥ 19 mmol/L, polyuria, and glucosuria were considered diabetic. Mouse blood glucose levels and body weights were monitored weekly. […] One day after implantation of the osmotic pumps, human C-peptide was systemically supplemented by subcutaneous implantation of K9-C-peptide depots as previously described. […] The K9-C-peptide and K8 polypeptide were prepared by inverse transition cycling as previously described. Four weeks after the subcutaneous injections, sera and retinal, lung, and kidney tissues were obtained from the mice and analyzed. All animal experiments conformed to the Guide for the Care and Use of Laboratory Animals (National Institutes of Health; Bethesda, MD, USA) and were approved by the Institutional Animal Care and Use Ethics Committee of Kangwon National University (KW-201204–3).
# [6] = Human insulin level in mouse serum (ELISA); assay type: in vivo; settings: HGM mice, insulin by osmotic pump 58.4 pmol/min/kg for 4 weeks, alone or with K8 polypeptide or K9-C-peptide, 10 weeks after streptozotocin, mean ± SD, n = 6
# Description: (§2) One day after implantation of the osmotic pumps, human C-peptide was systemically supplemented by subcutaneous implantation of K9-C-peptide depots as previously described. […] The K9-C-peptide and K8 polypeptide were prepared by inverse transition cycling as previously described. Four weeks after the subcutaneous injections, sera and retinal, lung, and kidney tissues were obtained from the mice and analyzed. All animal experiments conformed to the Guide for the Care and Use of Laboratory Animals (National Institutes of Health; Bethesda, MD, USA) and were approved by the Institutional Animal Care and Use Ethics Committee of Kangwon National University (KW-201204–3).
# [7] = Human C-peptide level in mouse serum (ELISA); assay type: in vivo; settings: HGM mice (STZ diabetic, insulin by osmotic pump 4 weeks), 4 weeks after s.c. K9-C-peptide 100 mg/kg or K8 polypeptide 83 mg/kg, injected twice, mean ± SD, n = 6
# Description: as §2
molecule,measurement,setting,value
Cc1c(C)c2c(c(C)c1O)CCC(C)(C(=O)O)O2 (stereo not drawn) [Trolox],HGM-induced persistent TGase activation in HRECs,[1],inhibited
same,HGM-induced persistent ROS generation in HRECs,[2],inhibited
CN(C)c1ccc(O)c2c1C[C@H]1C[C@H]3[C@H](N(C)C)C(O)=C(C(N)=O)C(=O)[C@@]3(O)C(O)=C1C2=O [minocycline],Effect on DR and DKD,"[3]; DR in type 1 and DKD in type 2 diabetic mice, respectively",partially ameliorated
same,Effect on DPN,[3]; type 1 and type 2 diabetic mice (either animal model),failed to improve
NCCSSCCN [cystamine],HGM-induced persistent TGase activation in HRECs,[1],inhibited
same,HGM-induced persistent ROS generation in HRECs,[2],inhibited
CC(C)C[C@H](NC(=O)[C@H](C)NC(=O)[C@H](CC(C)C)NC(=O)[C@@H]1CCCN1C(=O)[C@H](CCC(N)=O)NC(=O)[C@H](CC(C)C)NC(=O)[C@H](CO)NC(=O)CNC(=O)[C@H](C)NC(=O)CNC(=O)[C@@H]1CCCN1C(=O)CNC(=O)CNC(=O)CNC(=O)[C@H](CC(C)C)NC(=O)[C@H](CCC(=O)O)NC(=O)[C@@H](NC(=O)[C@H](CCC(N)=O)NC(=O)CNC(=O)[C@@H](NC(=O)[C@H](CCC(N)=O)NC(=O)[C@H](CC(C)C)NC(=O)[C@H](CC(=O)O)NC(=O)[C@H](CCC(=O)O)NC(=O)[C@H](C)NC(=O)[C@@H](N)CCC(=O)O)C(C)C)C(C)C)C(=O)N[C@@H](CCC(=O)O)C(=O)NCC(=O)N[C@@H](CO)C(=O)N[C@@H](CC(C)C)C(=O)N[C@@H](CCC(N)=O)C(=O)O [human C-peptide],Circulating half-life,[4],approximately 30 min
insulin: human recombinant insulin delivered by subcutaneous osmotic pump (HGM group),Effect on blood glucose level (hyperglycemia),[5],normalized
same,Effect on body weight,[5],normalized
same,Effect on water and food consumption,[5],normalized
same,Serum human insulin,[6],in the physiological range
same,Serum C-peptide,[7],not detectable
